What is called IC50 is the concentration needed to halve the response being measured.

From patent US11780830B2, “Triazolone derivatives or salts thereof and pharmaceutical compositions comprising the same” (YUHAN CORPORATION, priority 2018, dated 2023) come the findings set out here.

What all share (assay type): biochemical
For assay [1], the target named is T1, recombinant human MAO-A (monoamine oxidase-A) (Homo sapiens, UniProt P21397).
T1 construct: purchased Sigma-Aldrich
T1 sequence (P21397 1-527): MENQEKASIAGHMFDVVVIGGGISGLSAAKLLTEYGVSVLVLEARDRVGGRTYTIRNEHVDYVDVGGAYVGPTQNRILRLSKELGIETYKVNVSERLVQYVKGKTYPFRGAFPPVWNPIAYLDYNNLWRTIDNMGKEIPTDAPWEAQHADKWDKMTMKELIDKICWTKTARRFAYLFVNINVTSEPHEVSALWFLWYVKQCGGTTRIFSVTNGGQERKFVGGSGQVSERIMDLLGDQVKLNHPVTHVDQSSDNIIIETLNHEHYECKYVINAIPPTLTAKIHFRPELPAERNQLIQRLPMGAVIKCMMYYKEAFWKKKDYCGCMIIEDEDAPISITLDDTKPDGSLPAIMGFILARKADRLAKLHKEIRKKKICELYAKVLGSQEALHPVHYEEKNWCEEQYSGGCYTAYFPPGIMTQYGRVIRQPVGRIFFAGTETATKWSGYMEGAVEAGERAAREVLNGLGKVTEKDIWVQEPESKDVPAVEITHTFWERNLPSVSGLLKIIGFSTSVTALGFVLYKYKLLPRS
The experiment in a line: Activity on recombinant human MAO-A, method similar to the VAP-1 assay. The note with it: substrate 0.5 mM tyramine; read-out: Inhibitory Activity (IC50, nM) MAO-A. The gist of the method: (§1)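 First, serially diluted compounds were incubated with recombinant enzyme in 50 mM sodium phosphate, pH 7.4, for 30 min at 37° C. Next, Amplex Red (200 uM), HRP (1 U/mL) and tyramine (0.5 mM, MAO-A) or benzylamine (1 mM, MAO-B) were added. Then fluorescence was monitored over 1-2 h and IC50 fitted.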

Assay [2] concerns the target T2, recombinant human DAO (diamine oxidase) (Homo sapiens, UniProt P19801).
T2 construct: purchased R&D systems
T2 sequence (P19801 20-751): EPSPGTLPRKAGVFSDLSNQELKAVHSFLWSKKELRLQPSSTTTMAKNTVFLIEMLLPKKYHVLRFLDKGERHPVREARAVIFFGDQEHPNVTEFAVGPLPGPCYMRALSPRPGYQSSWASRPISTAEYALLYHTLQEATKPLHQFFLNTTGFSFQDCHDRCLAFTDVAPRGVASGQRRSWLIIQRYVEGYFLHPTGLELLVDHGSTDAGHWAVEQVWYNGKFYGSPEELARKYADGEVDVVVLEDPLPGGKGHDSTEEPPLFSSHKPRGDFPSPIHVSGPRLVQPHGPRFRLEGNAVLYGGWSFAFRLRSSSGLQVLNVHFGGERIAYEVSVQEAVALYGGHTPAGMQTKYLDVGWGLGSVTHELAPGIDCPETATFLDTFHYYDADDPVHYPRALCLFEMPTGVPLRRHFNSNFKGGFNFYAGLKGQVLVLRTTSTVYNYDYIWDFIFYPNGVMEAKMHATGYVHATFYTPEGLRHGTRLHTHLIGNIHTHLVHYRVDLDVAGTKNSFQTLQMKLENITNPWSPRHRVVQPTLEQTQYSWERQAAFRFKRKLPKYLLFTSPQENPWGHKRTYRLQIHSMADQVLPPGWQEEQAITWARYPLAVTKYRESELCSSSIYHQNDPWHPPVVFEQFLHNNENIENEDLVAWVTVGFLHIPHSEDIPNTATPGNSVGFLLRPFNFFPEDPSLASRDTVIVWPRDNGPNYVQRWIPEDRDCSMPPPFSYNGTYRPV
The experiment in a line: Activity on recombinant human DAO, method similar to the VAP-1 assay. Particulars: substrate 1 mM putrescine; read-out: Inhibitory Activity (IC50, nM) DAO. The gist of the method: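 Inhibition of recombinant human diamine oxidase (DAO, R&D systems) was assessed by the same approach as the VAP-1 assay, using 1 mM putrescine as substrate. Hydrogen peroxide formed was detected through an HRP-coupled Amplex Red reaction yielding fluorescent resorufin, read at 544 nm excitation and 590 nm emission. IC50 values came from four-parameter logistic fitting in GraphPad Prism.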

For assay [3], the target named is T3, recombinant human VAP-1 (Homo sapiens, UniProt Q16853).
T3 construct: purchased R&D systems
T3 sequence (Q16853 1-763): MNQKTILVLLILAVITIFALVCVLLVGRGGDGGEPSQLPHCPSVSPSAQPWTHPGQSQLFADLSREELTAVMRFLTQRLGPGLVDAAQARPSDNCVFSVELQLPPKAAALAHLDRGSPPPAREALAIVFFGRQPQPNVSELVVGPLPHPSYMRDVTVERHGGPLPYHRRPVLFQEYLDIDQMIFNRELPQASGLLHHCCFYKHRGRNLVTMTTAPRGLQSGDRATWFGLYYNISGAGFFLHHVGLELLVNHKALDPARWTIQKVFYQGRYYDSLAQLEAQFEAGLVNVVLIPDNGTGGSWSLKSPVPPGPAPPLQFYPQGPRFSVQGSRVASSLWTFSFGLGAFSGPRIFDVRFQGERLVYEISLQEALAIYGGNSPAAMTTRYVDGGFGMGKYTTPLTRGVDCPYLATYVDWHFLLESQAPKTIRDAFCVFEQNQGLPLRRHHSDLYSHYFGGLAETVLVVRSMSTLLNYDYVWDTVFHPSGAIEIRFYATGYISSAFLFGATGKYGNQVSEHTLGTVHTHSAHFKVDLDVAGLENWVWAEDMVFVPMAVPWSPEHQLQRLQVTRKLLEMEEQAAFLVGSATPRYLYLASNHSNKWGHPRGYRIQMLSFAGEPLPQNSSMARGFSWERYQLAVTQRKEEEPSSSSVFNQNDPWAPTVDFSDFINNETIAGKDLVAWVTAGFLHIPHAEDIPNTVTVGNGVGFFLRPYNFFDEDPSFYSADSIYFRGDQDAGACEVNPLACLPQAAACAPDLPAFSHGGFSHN
Description: Activity on recombinant human VAP-1, HRP-coupled Amplex Red hydrogen peroxide assay. The note with it: substrate 1 mM benzylamine; compound incubated with enzyme at 37° C. for 30 minutes; pH 7.4; read-out: Inhibitory Activity (IC50, nM) human VAP-1. The gist of the method:
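H2O2 generation from 1 mM benzylamine was coupled via 1 U/mL HRP to 200 uM Amplex Red; inhibitors, serially diluted 1:3 over 8 points with under 1% final DMSO, had been preincubated 30 min at 37 °C. IC50 from percentage drop in rate.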

Assay [4] has as its target T4, recombinant human MAO-B (monoamine oxidase-B) (Homo sapiens, UniProt P27338).
T4 construct: purchased Sigma-Aldrich
T4 sequence (P27338 1-520): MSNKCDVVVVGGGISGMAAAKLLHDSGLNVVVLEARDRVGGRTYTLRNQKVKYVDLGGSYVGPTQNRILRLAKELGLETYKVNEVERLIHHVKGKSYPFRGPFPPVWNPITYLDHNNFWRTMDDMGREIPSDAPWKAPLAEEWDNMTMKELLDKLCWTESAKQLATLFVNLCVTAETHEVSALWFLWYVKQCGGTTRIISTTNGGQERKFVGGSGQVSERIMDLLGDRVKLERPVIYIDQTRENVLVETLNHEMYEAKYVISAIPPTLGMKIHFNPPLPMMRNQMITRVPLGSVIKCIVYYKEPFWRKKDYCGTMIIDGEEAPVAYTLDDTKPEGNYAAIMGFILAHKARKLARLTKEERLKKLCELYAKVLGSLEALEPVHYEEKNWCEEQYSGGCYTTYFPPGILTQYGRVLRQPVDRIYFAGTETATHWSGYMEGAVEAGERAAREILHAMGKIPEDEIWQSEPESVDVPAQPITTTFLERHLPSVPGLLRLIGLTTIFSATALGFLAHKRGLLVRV
Description: Activity on recombinant human MAO-B, method similar to the VAP-1 assay. The note with it: substrate 1 mM benzylamine; read-out: Inhibitory Activity (IC50, nM) MAO-B. The gist of the method: as §1

Structures can show the parent of a compound that is named as a salt.

As for `NC/C(=C\F)Cn1ncn(Cc2ccc(Cc3ccc(OC(F)(F)F)cc3)s2)c1=O` [Example 168, 2-[(2E)-2-(aminomethyl)-3-fluoroprop-2-en-1-yl]-4-({5-[4-(trifluoromethoxy)benzyl]thiophen-2-yl}methyl)-2,4-dihydro-3H-1,2,4-triazol-3-one], the IC50 was greater than 100000 nM in assay [1], 4500 nM in assay [2], 12 nM in assay [3] and 340 nM in assay [4].

Turning to `CS(=O)(=O)Nc1cccc(-c2ccc(Cn3cnn(C/C(=C/F)CN)c3=O)s2)c1` [Example 177, N-{3-[5-({1-[(2E)-2-(aminomethyl)-3-fluoroprop-2-en-1-yl]-5-oxo-1,5-dihydro-4H-1,2,4-triazol-4-yl}methyl)thiophen-2-yl]phenyl}methansulfonamide], the IC50 in assay [1] was greater than 100000 nM; in assay [2] it was 570 nM; in assay [3], 1.5 nM; in assay [4] it was 300 nM.

As to `NC/C(=C\F)Cn1ncn(Cc2ccc(-c3ccc(N4CCNCC4)cc3)s2)c1=O` [Example 22, 2-[(2E)-2-(aminomethyl)-3-fluoroprop-2-en-1-yl]-4-(5-[4-(piperazin-1-yl)phenyl]thiophen-2-ylmethyl)-2,4-dihydro-3H-1,2,4-triazol-3-one hydrochloride], the IC50 in assay [1] is greater than 100000 nM; in assay [2], 2400 nM; in assay [3], 6.4 nM; in assay [4], 2600 nM.

Regarding `CC1(C)Oc2cc(-c3ccc(Cn4cnn(C/C(=C/F)CN)c4=O)s3)ccc2NC1=O` [Example 87, 7-[5-[[1-[(E)-2-(aminomethyl)-3-fluoro-allyl]-5-oxo-1,2,4-triazol-4-yl]methyl]-2-thienyl]-2,2-dimethyl-4H-1,4-benzoxazin-3-one], the half-maximal inhibitory concentration (IC50) in assay [1] is greater than 100000 nM; in assay [2] it was 760 nM; in assay [3], 0.4 nM; in assay [4], 2700 nM.

For the compound `NC/C(=C\F)Cn1ncn(Cc2ccc(-c3ccc(=O)n(C4CC4)c3)s2)c1=O` [Example 195, 5-[5-({1-[(2E)-2-(aminomethyl)-3-fluoroprop-2-en-1-yl]-5-oxo-1,5-dihydro-4H-1,2,4-triazol-4-yl}methyl)thiophen-2-yl]-1-cyclopropylpyridin-2(1H)-one], the IC50 was greater than 100000 nM in assay [1], 710 nM in assay [2], 1.6 nM in assay [3] and 2300 nM in assay [4].

For `NC/C(=C\F)Cn1ncn(Cc2ccc(-c3csc(CO)c3)s2)c1=O` [Example 164, 2-[(2E)-2-(aminomethyl)-3-fluoroprop-2-en-1-yl]-4-{[5′-(hydroxymethyl)-2,3′-bithiophen-5-yl]methyl}-2,4-dihydro-3H-1,2,4-triazol-3-one], the half-maximal inhibitory concentration (IC50) in assay [1] was greater than 100000 nM; in assay [2], 6800 nM; in assay [3], 2.5 nM; in assay [4] it was 170 nM.

Turning to `NC/C(=C\F)Cn1ncn(Cc2ccc(-c3cccc4cnccc34)s2)c1=O` [Example 114, 2-[(2E)-2-(aminomethyl)-3-fluoroprop-2-en-1-yl]-4-[5-(isoquinolin-5-yl)thiophen-2-yl]methyl-2,4-dihydro-3H-1,2,4-triazol-3-one hydrochloride], the IC50 is 143000 nM in assay [1], 110 nM in assay [2], 0.3 nM in assay [3] and 23 nM in assay [4].

Consider `CN(C)S(=O)(=O)c1ccc(-c2ccc(Cn3cnn(C/C(=C/F)CN)c3=O)s2)cc1` [Example 9, 4-[5-(1-[(2E)-2-(aminomethyl)-3-fluoroprop-2-en-1-yl]-5-oxo-1,5-dihydro-4H-1,2,4-triazol-4-ylmethyl)thiophen-2-yl]-N,N-dimethylbenzenesulfonamide hydrochloride], for which the IC50 was greater than 100000 nM in assay [1], 170 nM in assay [2], 1.5 nM in assay [3] and 1600 nM in assay [4].

Regarding `NC/C(=C\F)Cn1ncn(Cc2ccc(-c3ccc4c(c3)CC(=O)N4)s2)c1=O` [Example 69, 5-[5-(1-[(2E)-2-(aminomethyl)-3-fluoroprop-2-en-1-yl]-5-oxo-1,5-dihydro-4H-1,2,4-triazol-4-ylmethyl)thiophen-2-yl]-1,3-dihydro-2H-indol-2-one hydrochloride], the IC50 in assay [1] is 70000 nM; in assay [2], 1100 nM; in assay [3], 0.1 nM; in assay [4], 1800 nM.

Take `Cc1cscc1-c1ccc(Cn2cnn(C/C(=C/F)CN)c2=O)s1` [Example 165, 2-[(2E)-2-(aminomethyl)-3-fluoroprop-2-en-1-yl]-4-[(4′-methyl-2,3′-bithiophen-5-yl)methyl]-2,4-dihydro-3H-1,2,4-triazol-3-one]: the IC50 in assay [1] is greater than 100000 nM; in assay [2] it was 5300 nM; in assay [3], 7.5 nM; in assay [4], 2.8 nM.
